Where two headings read alike, the source gives them in different places.
Assays:
Meloidogyne incognita = Meloidogyne incognita (MELGIN) assay, gall formation on salad seedlings; type: in vivo; conditions: 336 h, after 14 days, read-out: nematicidal activity (percentage of gall formation; 100% = no galls)
Experimental: Meloidogyne incognita (MELGIN) Assay
Solvent: 125.0 parts by weight of acetone
To produce a suitable preparation of active compound, 1 part by weight of active compound is mixed with the stated amount of solvent, and the concentrate is diluted with water to the desired concentration.
Vessels are filled with sand, a solution of the active ingredient, a suspension containing eggs and larvae of the southern root-knot nematode (Meloidogyne incognita) and salad seeds. The salad seeds germinate and the seedlings grow. Galls develop in the roots.
After 14 days the nematicidal activity is determined on the basis of the percentage of gall formation. 100% means no galls were found and 0% means the number of galls found on the roots of the treated plants was equal to that in untreated control plants.

Cooperia curticei = assay: In vitro assay with Cooperia curticei (COOPCU), larval mortality; conditions: 120 h, read-out: activity (larval mortality)
Experimental: In Vitro Assay with Cooperia curticei (COOPCU)
(§1) Solvent: Dimethyl Sulfoxide
(§2) To produce a suitable preparation of active compound, 10 mg of active compound are dissolved in 0.5 ml solvent, and the concentrate is diluted with “Ringer's solution” to the desired concentration.
Approximately 40 nematode larvae (Cooperia curticei) are transferred into a test tube containing the compound solution.
After 5 days percentage of larval mortality is recorded. 100% efficacy means all larvae are killed; 0% efficacy means no larvae are killed.

[1] = LogP by HPLC on reversed phase columns (EEC directive 79/831 Annex V.A8); type: physicochemical
Experimental: Calibration was done with straight-chain alkan2-ones (with 3 to 16 carbon atoms) with known Log P values (measurement of Log P values using retention times with linear interpolation between successive alkanones). Lambda-max-values were determined using UV-spectra from 200 nm to 400 nm and the peak values of the chromatographic signals.

[2] = tested on: Nippostrongylus brasiliensis; assay: In vitro assay with Nippostrongylus brasiliensis (NIPOBR), acetylcholine esterase readout; conditions: adult worms, read-out: activity (reduction of AChE compared to negative control); for inhibition at 1 ppm: 1 ppm (1 μg/ml); for inhibition at 10 ppm: 10 ppm (10 μg/ml)
Experimental: In Vitro Assay with Nippostrongylus brasiliensis (NIPOBR)
Adult Nippostrongylus brasiliensis were washed with saline buffer containing 100 U/ml penicillin, 0.1 mg/ml streptomycin and 2.5 μg/ml amphotericin B. Test compounds were dissolved in DMSO and worms were incubated in medium in a final concentration of 10 μg/ml (10 ppm) respectively 1 μg/ml (1 ppm). An aliquot of the medium was used to determine the acetylcholine esterase activity in comparison to a negative control. The principle of measuring acetylcholine esterase as readout for anthelmintic activity was described in Rapson et al (1986) and Rapson et al (1987).

Haemonchus contortus = assay: In vitro assay with Haemonchus contortus (HAEMCO), larval mortality; conditions: 120 h; for mortality at 20 ppm: read-out: activity (larval mortality)
Experimental: In Vitro Assay with Haemonchus contortus (HAEMCO)
as §1, §2
Approximately 40 larvae of the red stomach worm (Haemonchus contortus) are transferred into a test tube containing compound solution.
After 5 days percentage of larval mortality are recorded. 100% efficacy means all larvae are killed, 0% efficacy means no larvae are killed.

[3] = LC-UV, acidic range, 0.1% formic acid in water and acetonitrile, read-out: logP (HCOOH) [a]

Row | Compound | pest or weed control at 20 ppm (Meloidogyne incognita) | mortality at 20 ppm (Cooperia curticei) | chromatographic logP ([1]; logP (HCOOH) [a]) | inhibition at 1 ppm [2] | inhibition at 10 ppm [2] | mortality at 20 ppm (Haemonchus contortus) | chromatographic logP [1, 3] | mortality at 20 ppm (Haemonchus contortus; 20 ppm, after 5 days) | Emax at 0.8 ppm (Haemonchus contortus; HAEMCO, 0.8 ppm, 5dat, comparative example, read-out: % Efficacy) | Emax at 4 ppm (Haemonchus contortus; HAEMCO, 4 ppm, 5dat, comparative example, read-out: % Efficacy) | Emax at 20 ppm (Haemonchus contortus; HAEMCO, 20 ppm, 5dat, comparative example, read-out: % Efficacy)
1 | O=C(NCC(F)(F)c1ncc(-c2ccc(OC(F)F)cc2)cc1Cl)c1ccccc1C(F)(F)F [Example 4] | 100% | 100% | 3.78 | ≥ 60% | ≥ 60% | 100% | – | – | – | – | –
2 | O=C(NCCc1ncc(-c2ccc(Cl)cc2)cc1Cl)c1ccccc1C(F)(F)F [Example 1, N-{2-[3-chloro-5-(4-chlorophenyl)pyridin-2-yl]ethyl}-2-(trifluoromethyl)benzamide] | 100% | 100% | – | ≥ 60% | ≥ 60% | – | 3.97 | 100% | 100% | 100% | 100%
3 | COc1ccc(-c2cnc(C(F)(F)CNC(=O)c3ccccc3C(F)(F)F)c(Cl)c2)cc1 [Example 7] | 100% | 100% | – | ≥ 60% | ≥ 60% | – | 3.68 | 100% | – | – | –

Source: US9776967B2, “Carboxamide derivatives as pesticidal compounds” (priority 2013, dated 2017)
